# From ChEMBL document CHEMBL1201862, “PubChem BioAssay data set” (2004)
# The source made the active and inactive calls.
# Key:
# [1] = biological target: T1, Cytochrome P450 1A2 (Homo sapiens, UniProt P05177);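 also: PubChem cytochrome P450 panel assay, CYP1A2 panel member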
# T1 sequence (P05177 whole entry): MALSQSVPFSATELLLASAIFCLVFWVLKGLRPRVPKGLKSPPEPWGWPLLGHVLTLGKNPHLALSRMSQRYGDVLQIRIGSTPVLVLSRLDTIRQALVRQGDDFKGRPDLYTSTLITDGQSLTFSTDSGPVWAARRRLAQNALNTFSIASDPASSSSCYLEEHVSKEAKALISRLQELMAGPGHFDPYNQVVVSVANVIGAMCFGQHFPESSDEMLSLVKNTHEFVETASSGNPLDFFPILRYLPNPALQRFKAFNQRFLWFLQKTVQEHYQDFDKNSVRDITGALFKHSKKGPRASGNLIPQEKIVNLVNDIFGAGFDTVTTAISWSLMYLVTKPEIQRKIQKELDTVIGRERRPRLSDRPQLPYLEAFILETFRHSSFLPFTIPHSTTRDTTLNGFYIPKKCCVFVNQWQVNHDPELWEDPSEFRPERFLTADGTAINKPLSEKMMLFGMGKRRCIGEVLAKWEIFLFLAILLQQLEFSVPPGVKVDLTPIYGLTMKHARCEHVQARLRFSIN
# [2] = biological target: Cytochrome P450 3A4 (Homo sapiens, UniProt P08684);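 also: CYP3A4 tested as one member of a cytochrome P450 panel screen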
# [3] = inhibitors of SNCA 5'UTR-driven reporter translation, confirmation, H4 neuroglioma cells, luminescence (AID 1988); assay type: functional, cell-based
# [4] = Luminescence Cell-Based Dose Response HTS to Identify Inhibitors of 5'UTR Stem-Loop Driven Prion Protein mRNA Translation in H4 Neuroglioblastoma Cells. [Related pubchem assays: 1827 (Project Summary), 1813 (Primary HTS)]; assay type: functional
# [5] = inhibitors of firefly luciferase expression or activity, dose response, H4 neuroglioma cells, luminescence (AID 1990); assay type: functional, cell-based
# [6] = biological target: T2, Corticotropin-releasing factor receptor 2/Corticotropin-releasing factor-binding protein (Homo sapiens, UniProt P24387+Q13324); test: activators of CRF receptor 2 with binding protein – uHTS hits, confirmation (AID 602473); assay type: functional; settings: read-out: EC50_Mean
# T2 sequence (Q13324 whole entry): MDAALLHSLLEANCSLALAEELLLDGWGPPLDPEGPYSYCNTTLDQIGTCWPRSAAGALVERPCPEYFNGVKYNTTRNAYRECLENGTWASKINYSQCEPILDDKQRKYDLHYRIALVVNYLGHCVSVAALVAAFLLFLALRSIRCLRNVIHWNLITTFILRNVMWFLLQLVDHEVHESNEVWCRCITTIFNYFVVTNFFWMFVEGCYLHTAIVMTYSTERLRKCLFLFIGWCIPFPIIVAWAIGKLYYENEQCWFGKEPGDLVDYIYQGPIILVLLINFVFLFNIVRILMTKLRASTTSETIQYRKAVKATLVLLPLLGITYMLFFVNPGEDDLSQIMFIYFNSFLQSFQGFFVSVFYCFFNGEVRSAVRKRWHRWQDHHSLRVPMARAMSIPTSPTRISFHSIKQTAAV
# T2 sequence (P24387 whole entry): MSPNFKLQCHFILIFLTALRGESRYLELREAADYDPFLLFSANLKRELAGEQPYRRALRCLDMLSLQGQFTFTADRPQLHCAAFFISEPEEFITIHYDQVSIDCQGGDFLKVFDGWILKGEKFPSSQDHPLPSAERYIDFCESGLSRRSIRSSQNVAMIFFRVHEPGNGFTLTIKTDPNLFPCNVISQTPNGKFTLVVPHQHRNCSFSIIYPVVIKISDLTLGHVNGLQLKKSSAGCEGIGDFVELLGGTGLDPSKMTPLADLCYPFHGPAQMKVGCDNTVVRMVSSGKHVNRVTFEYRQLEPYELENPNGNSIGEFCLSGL
# [7] = biological target: T2, Corticotropin-releasing factor receptor 2/Corticotropin-releasing factor-binding protein; test: Dose Response confirmation of uHTS hits for small molecule antagonists of the CRF-binding protein and CRF-R2 receptor complex.; assay type: functional; settings: read-out: IC50_Mean
# [8] = inhibitors of intracellular T. cruzi replication, confirmation, NIH3T3 host cells, beta-gal luminescence (AID 2044); assay type: functional, cell-based;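 also: intracellular parasites grown in NIH/3T3 mouse fibroblasts as host cells; luminescent beta-galactosidase reporter signal from transgenic T. cruzi replicating inside host cells; inhibitors lower the luminescence signal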
# [9] = HepG2 cell cytotoxicity, dose response, cytotoxicity control for Shn3 inhibitor project, CellTiter-Glo, cherry-picked (AID 624134); assay type: functional, cell-based
# [10] = biological target: Luciferin 4-monooxygenase (Photinus pyralis, UniProt P08659); test: firefly luciferase enzyme inhibitors, dose response, biochemical, luminescence (AID 1891)
# [11] = control 3'UTR Renilla luciferase suppression, dose response, counter-screen for Shn3 inhibitor project, cell-based, Clone20-Shn3RL, cherry-picked (AID 624133); assay type: functional
# [12] = cytotoxicity toward NIH3T3 fibroblasts, dose response, counter-screen, cell-based, ATP luminescence, mouse fibroblasts (AID 2010); assay type: functional;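 also: cells exposed to compound for about 90 hours before reading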
# [13] = Shn3 3'UTR reporter inhibitors, dose response, cell-based, Clone20 osteoblasts, firefly luciferase, cherry-picked (AID 624132); assay type: functional;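 also: firefly luciferase luminescence from reporter carrying the Shn3 3'UTR in osteoblasts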
# [14] = Luminescence Cell-Based Dose Confirmation HTS to Identify Inhibitors of Platelet Dense Granule Release. [Related pubchem assays: 1663 (Primary HTS), 1678 (Summary of Project)]; assay type: functional
# [15] = biological target: Cytochrome P450 2C9 (Homo sapiens, UniProt P11712)
# [16] = biological target: T3, Ubiquitin-conjugating enzyme E2 N (Homo sapiens, UniProt P61088); assay type: functional;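 also: Dose-response confirmation in a TR-FRET assay detecting UBC13-driven polyubiquitin chain formation, inhibition measured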
# T3 sequence (P61088 whole entry): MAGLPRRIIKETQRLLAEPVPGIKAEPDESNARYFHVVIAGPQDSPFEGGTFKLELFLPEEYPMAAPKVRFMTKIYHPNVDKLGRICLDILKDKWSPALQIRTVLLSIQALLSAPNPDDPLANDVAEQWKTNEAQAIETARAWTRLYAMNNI
# [17] = biological target: Cytochrome P450 2C19 (Homo sapiens, UniProt P33261); test: Cytochrome panel assay with activity outcomes. Panel member name: p450-cyp2c19 Compounds with AC50 equal or less than 10 uM are considered active; assay type: functional; settings: read-out: AC50
# Sequence of Cytochrome P450 2C19 (P33261 whole entry): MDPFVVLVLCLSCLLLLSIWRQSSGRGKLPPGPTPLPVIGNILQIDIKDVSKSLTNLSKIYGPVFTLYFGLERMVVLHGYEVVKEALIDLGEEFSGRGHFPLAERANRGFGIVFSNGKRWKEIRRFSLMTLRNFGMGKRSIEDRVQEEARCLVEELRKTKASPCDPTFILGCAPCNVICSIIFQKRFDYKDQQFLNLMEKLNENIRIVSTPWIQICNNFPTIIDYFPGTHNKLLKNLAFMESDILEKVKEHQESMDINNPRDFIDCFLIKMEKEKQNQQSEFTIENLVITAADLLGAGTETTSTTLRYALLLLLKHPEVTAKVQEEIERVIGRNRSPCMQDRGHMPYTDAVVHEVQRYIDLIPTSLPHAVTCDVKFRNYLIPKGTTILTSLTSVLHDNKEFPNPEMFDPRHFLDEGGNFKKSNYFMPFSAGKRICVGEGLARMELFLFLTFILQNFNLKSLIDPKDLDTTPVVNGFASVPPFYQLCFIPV
# Sequence of Cytochrome P450 2C9 (P11712 whole entry): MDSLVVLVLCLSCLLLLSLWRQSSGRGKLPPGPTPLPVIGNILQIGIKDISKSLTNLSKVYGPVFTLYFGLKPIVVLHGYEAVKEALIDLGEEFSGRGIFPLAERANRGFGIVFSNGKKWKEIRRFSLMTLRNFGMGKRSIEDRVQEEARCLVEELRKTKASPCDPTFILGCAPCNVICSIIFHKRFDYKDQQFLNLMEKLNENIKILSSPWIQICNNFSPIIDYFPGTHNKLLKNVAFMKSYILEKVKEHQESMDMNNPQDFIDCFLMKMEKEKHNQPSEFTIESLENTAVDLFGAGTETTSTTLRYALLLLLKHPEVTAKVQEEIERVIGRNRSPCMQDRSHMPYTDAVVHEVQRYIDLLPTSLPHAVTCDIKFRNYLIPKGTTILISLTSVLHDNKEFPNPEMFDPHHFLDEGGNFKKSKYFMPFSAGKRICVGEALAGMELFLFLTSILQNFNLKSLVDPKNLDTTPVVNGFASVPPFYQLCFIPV
# Sequence of Cytochrome P450 3A4 (P08684 whole entry): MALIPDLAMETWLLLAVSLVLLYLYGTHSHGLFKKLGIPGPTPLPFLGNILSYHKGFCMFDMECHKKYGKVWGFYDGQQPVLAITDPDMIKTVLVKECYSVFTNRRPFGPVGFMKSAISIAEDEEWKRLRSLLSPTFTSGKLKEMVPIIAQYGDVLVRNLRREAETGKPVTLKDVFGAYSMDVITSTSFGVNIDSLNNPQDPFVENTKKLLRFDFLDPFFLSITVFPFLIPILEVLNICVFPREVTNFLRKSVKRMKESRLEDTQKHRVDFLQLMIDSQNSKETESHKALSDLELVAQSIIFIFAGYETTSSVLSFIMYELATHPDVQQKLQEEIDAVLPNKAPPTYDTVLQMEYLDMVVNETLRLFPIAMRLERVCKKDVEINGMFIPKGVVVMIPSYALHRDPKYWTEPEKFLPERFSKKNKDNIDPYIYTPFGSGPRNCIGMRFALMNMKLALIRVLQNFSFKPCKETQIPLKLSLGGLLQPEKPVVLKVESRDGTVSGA
# Sequence of Luciferin 4-monooxygenase (P08659 whole entry): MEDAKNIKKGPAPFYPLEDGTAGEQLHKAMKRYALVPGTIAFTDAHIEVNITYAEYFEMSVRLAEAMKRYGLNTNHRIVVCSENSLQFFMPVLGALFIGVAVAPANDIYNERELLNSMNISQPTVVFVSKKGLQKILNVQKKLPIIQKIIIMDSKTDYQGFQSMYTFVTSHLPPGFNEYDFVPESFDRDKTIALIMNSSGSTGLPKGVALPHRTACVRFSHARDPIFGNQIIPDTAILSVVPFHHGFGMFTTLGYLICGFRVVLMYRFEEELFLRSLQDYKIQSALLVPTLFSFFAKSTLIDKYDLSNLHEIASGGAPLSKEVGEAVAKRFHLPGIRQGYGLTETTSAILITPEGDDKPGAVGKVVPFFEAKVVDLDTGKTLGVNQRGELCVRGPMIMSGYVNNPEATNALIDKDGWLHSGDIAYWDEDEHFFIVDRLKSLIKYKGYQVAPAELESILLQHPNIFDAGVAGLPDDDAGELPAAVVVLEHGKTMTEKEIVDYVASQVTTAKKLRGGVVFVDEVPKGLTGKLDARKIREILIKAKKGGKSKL
smiles,measurement,setting,value
CCNc1ncc2nc(-c3ccc(OC)cc3)c(=O)n(CCOC)c2n1,AC50,[1],1.26 µM (inconclusive)
same,AC50,[2],15.8 µM (inconclusive)
Cc1ccc(-n2nc3c(=O)n(CC(=O)NCc4ccc(C)o4)nc(C)c3c2C)cc1,EC50,[3],> 120 µM (not active)
same,EC50,[4],109 µM (active)
same,EC50,[5],17.8 µM (active)
NC(=O)COC(=O)c1ccc(-c2ccc(O)cc2)cc1,EC50,[6],> 53 µM (inactive)
same,IC50,[7],> 47.1 µM (inactive)
COc1ccccc1OC[C@H](O)COC(N)=O,AC50,[1],10 µM (inconclusive)
CN(C)CCN(C)CCc1ccc(Cl)c(Cl)c1,AC50,[1],39.8 µM (inconclusive)
CCOC(=O)c1cc(C)sc1NC(=O)CCC(=O)O,EC50,[6],> 53 µM (inactive)
same,IC50,[7],> 47.1 µM (inactive)
Cc1ccc(OCc2cc(C(=O)N3CCN(CC(=O)NC(C)C)CC3)no2)cn1,EC50,[6],> 53 µM (inactive)
same,IC50,[7],> 47.1 µM (inactive)
COC(=O)c1c(-c2cccc3ccccc23)csc1NC(=O)Cc1ccc(OC)c(OC)c1,EC50,[8],2.49 µM (active)
same,AC50,[9],> 70 µM (inactive)
same,EC50,[10],> 112 µM (not active)
same,AC50,[11],16.9 µM (active)
same,EC50,[12],12.6 µM (active)
same,AC50,[13],5.43 µM (active)
same,EC50,[14],> 112 µM (not active)
O=C(c1ccncc1)N1CCC[C@@]2(CCN(c3ccccn3)C2)C1,AC50,[1],20 µM (inconclusive)
same,AC50,[15],20 µM (inconclusive)
C#CCOCCOCCOCCNc1nc(N2CCN(C(=O)C([C@@H](C)O)n3cc([C@@H](N)CCCCN)nn3)CC2)nc(N2CCN(C(=O)[C@H](CCCCN)n3cc([C@@H](N)CC(N)=O)nn3)CC2)n1 (some centres not stated),IC50,[16],> 20 µM (inactive)
Sc1nnc(CSCc2ccccc2Cl)n1-c1ccccc1,AC50,[1],22.4 µM (inconclusive)
same,AC50,[15],5.01 µM (inconclusive)
NCC12CC3CC(C1)CC(c1ccc(Cl)cc1)(C3)C2,EC50,[8],2.19 µM (active)
same,IC50,[16],> 20 µM (inactive)
same,EC50,[12],> 60 µM (inconclusive)
CCC[C@@H](CN1CCC[C@H]1CN1C(N)=NC[C@H]1C(C)C)N1C[C@@H](Cc2ccccc2)N(CCCC2CCCC2)C1=N,IC50,[16],> 20 µM (inactive)
Cc1ccc(S(=O)(=O)N2CCN(C(=O)CN3CCN(C)CC3)C2)cc1,AC50,[1],15.8 µM (inconclusive)
same,AC50,[17],28.2 µM (inconclusive)
COc1ccc(C2=Nc3ccccc3C2(O)CCN2C(=O)c3ccccc3C2=O)cc1 (configuration not stated),EC50,[6],> 53 µM (inactive)
same,IC50,[7],> 47.1 µM (inactive)
CCOc1ccccc1C(=O)OCC(=O)NCC1CCCO1 (configuration not stated),EC50,[6],> 53 µM (inactive)
same,IC50,[7],> 47.1 µM (inactive)
CC1(C)Cc2nc3sc4c(SCC(=O)NCc5ccccc5)ncnc4c3cc2CO1,EC50,[3],3.72 µM (active)
same,EC50,[4],> 120 µM (not active)
CC(C)CCn1nc(C(=O)Nc2nc3c(s2)CCCC3)c2ccccc2c1=O,EC50,[3],12.8 µM (active)
same,EC50,[4],12.9 µM (active)
same,EC50,[5],16.9 µM (active)
O=C(O)c1cc(-c2ccccc2)nc(-c2ccccc2)c1,EC50,[6],> 53 µM (inactive)
same,IC50,[7],> 47.1 µM (inactive)
